Test results: patent US10131652B2, “Pyrimidinyloxy benzene derivatives as herbicides” (E. I. DU PONT DE NEMOURS AND COMPANY, priority 2014, dated 2018)
Like-named read-outs stand apart in the source and are kept apart here.

Assays:
Test in all cases: Test E pre-/postemergence plant response
Format in all cases: in vivo
[1] = system: wild buckwheat (Polygonum convolvulus); conditions: Fallopia convolvulus, scale 0 to 100, read-out: Plant response rating, Buckwheat, Wild; for pest or weed control at 16 g/ha: 16 g ai/ha; for pest or weed control at 31 g/ha: 31 g ai/ha; for pest or weed control at 62 g/ha: 62 g ai/ha; for pest or weed control at 125 g/ha: 125 g ai/ha
Summary of the method: (§1)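 Visual scores on a 0–100 scale (100 = complete control) were assigned against untreated controls 7–21 days after treatment in a controlled environment. Compounds, formulated with solvent plus surfactant, were applied to pre-emergence silt-loam sowings or to 1- to 4-leaf plants (2–18 cm) in potting medium.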

[2] = system: spring barley (Hordeum vulgare); conditions: for plant injury at 16 g/ha: 16 g ai/ha; for plant injury at 31 g/ha: 31 g ai/ha; for plant injury at 62 g/ha: 62 g ai/ha; for plant injury at 125 g/ha: 125 g ai/ha
Summary of the method: as §1

[3] = system: Russian thistle (Salsola iberica); conditions: scale 0 to 100
Summary of the method: as §1

[4] = post-emergence, Postemergence, scale 0 to 100, read-out: Plant response rating, Barley, Spring
[5] = post-emergence, Postemergence, scale 0 to 100 (0 no effect, 100 complete control), read-out: Plant response rating, Barley, Spring
[6] = pre-emergence, Preemergence, scale 0 to 100, read-out: Plant response rating, Barley, Spring

Structure (SMILES)	pest or weed control at 16 g/ha ([1]; post-emergence, Postemergence) [%]	pest or weed control at 31 g/ha ([1]; post-emergence, Postemergence) [%]	pest or weed control at 62 g/ha ([1]; post-emergence, Postemergence) [%]	pest or weed control at 125 g/ha ([1]; post-emergence, Postemergence) [%]	pest or weed control at 16 g/ha ([1]; pre-emergence, Preemergence) [%]	pest or weed control at 31 g/ha ([1]; pre-emergence, Preemergence) [%]	pest or weed control at 62 g/ha ([1]; pre-emergence, Preemergence) [%]	pest or weed control at 125 g/ha ([1]; pre-emergence, Preemergence) [%]	plant injury at 16 g/ha [2, 4] [%]	plant injury at 31 g/ha [2, 4] [%]	plant injury at 62 g/ha [2, 4] [%]	plant injury at 125 g/ha [2, 5] [%]	plant injury at 16 g/ha [2, 6] [%]	plant injury at 31 g/ha [2, 6] [%]	plant injury at 62 g/ha [2, 6] [%]	plant injury at 125 g/ha [2, 6] [%]	Plant response rating, Russian Thistle ([3]; 16 g ai/ha Postemergence)	Plant response rating, Russian Thistle ([3]; 16 g ai/ha Preemergence)	Plant response rating, Russian Thistle ([3]; 31 g ai/ha Postemergence)	Plant response rating, Russian Thistle ([3]; 31 g ai/ha Preemergence)	further results
FC(F)c1cc(-c2ccccc2Oc2ncc(Cl)cn2)on1 [Compound 53, 5-chloro-2-[2-[3-(difluoromethyl)-5-isoxazolyl]phenoxy]pyrimidine]	70	65	90	95	65	100	100	100	5	5	10	10	35	35	35	35					
FC(F)c1cc(-c2ccccc2Oc2ncc(Br)cn2)no1 [Compound 62, 5-bromo-2-[2-[5-(difluoromethyl)-3-isoxazolyl]phenoxy]pyrimidine]	75	80	95	100	25	35	80	100	10	15	20	25	0	0	0	0					
Fc1cccc(Oc2ncc(Cl)cn2)c1-c1cc(C(F)F)no1 [Compound 144, 5-chloro-2-[2-[3-(difluoromethyl)-5-isoxazolyl]-3-fluorophenoxy]pyrimidine]	100	95	100	100	85	100	100	100	15	25	35	45	10	25	45	65	85	15	90	65	Plant response rating, Russian Thistle ([3]; 62 g ai/ha Postemergence): 95; Plant response rating, Russian Thistle ([3]; 62 g ai/ha Preemergence): 100; Plant response rating, Russian Thistle ([3]; 125 g ai/ha Postemergence): 98; Plant response rating, Russian Thistle ([3]; 125 g ai/ha Preemergence): 100
Fc1cccc(Oc2ncc(Br)cn2)c1-c1cc(C(F)F)no1 [Compound 145, 5-bromo-2-[2-[3-(difluoromethyl)-5-isoxazolyl]-3-fluorophenoxy]pyrimidine]	100	100	100	100	100	100	85	100	15	15	20	30	15	25	45	80	80	0	85	10	Plant response rating, Russian Thistle ([3]; 62 g ai/ha Postemergence): 90; Plant response rating, Russian Thistle ([3]; 62 g ai/ha Preemergence): 60; Plant response rating, Russian Thistle ([3]; 125 g ai/ha Postemergence): 100; Plant response rating, Russian Thistle ([3]; 125 g ai/ha Preemergence): 100
Fc1cccc(Oc2ncc(Cl)cn2)c1-c1cc(C(F)(F)F)on1 [Compound 168, 5-chloro-2-[2-[5-(trifluoromethyl)-3-isoxazolyl]-3-fluorophenoxy]pyrimidine]	65	95	95	100	0	65	100	100	10	15	15	25	0	15	30	35					
FC(F)(F)c1cc(-c2ccccc2Oc2ncc(Cl)cn2)no1 [Compound 200, 5-chloro-2-[2-[5-(trifluoromethyl)-3-isoxazolyl]phenoxy]pyrimidine]	65	70	95	100	65	75	100	100	10	15	25	35									
